Source: ChEMBL document CHEMBL5576059, “Design, synthesis and molecular docking study of novel triazole-quinazolinone hybrids as antimalarial and antitubercular agents” (Bioorg Med Chem Lett, 2024)
In brackets after ≈: the same amount, converted by molar mass.

How the values were obtained:
RAW264.7 = assay: Cytotoxicity against mouse RAW264.7 cells at 25 microg/ml by MTT assay; format: toxicity, cell-based; details: dose 25 µg/ml
[1] = tested on: Mycobacterium tuberculosis; assay: Antitubercular activity against Mycobacterium tuberculosis H37RV ATCC27294 assessed as inhibition of bacterial growth by MABA assay; format: functional
Plasmodium falciparum = assay: Antimalarial activity against Plasmodium falciparum assessed as inhibition of parasite growth; format: functional, organism-based
[2] = Cytotoxicity against mouse RAW264.7 cells assessed as inhibition of cell growth at 78.29 uM by MTT assay relative to control; format: toxicity, cell-based
[3] = Cytotoxicity against mouse RAW264.7 cells assessed as inhibition of cell growth at 66.37 uM by MTT assay relative to control; format: toxicity, cell-based
[4] = Cytotoxicity against mouse RAW264.7 cells assessed as inhibition of cell growth at 81.35 uM by MTT assay relative to control; format: toxicity, cell-based

Structure (SMILES) | Activity (RAW264.7) | MIC [1] | IC50 (Plasmodium falciparum) | inhibition at 78.29 µM [2] | inhibition at 66.37 µM [3] | inhibition at 81.35 µM [4]
Cc1ccc(-n2cc(-c3nc4ccccc4c(=O)[nH]3)nn2)cc1 | Non-Toxic | > 82.4 µM | 3.1 µM |  |  | 
O=c1[nH]c(-c2cn(-c3ccc(F)cc3)nn2)nc2ccccc12 | Non-Toxic | > 81.4 µM | 1.95 µM |  |  | 
Cc1cc(C)c(-n2cc(-c3nc4ccccc4c(=O)[nH]3)nn2)c(C)c1 | Non-Toxic | > 75.4 µM | 2.9 µM |  |  | 
CCc1ccc(-n2cc(-c3nc4ccccc4c(=O)[nH]3)nn2)cc1 | Non-Toxic | 78.8 µM (≈ 25 µg/mL) | 3.25 µM |  |  | 
O=c1[nH]c(-c2cn(-c3ccc(Cl)cc3)nn2)nc2ccccc12 | Non-Toxic | 77.2 µM (≈ 25 µg/mL) | 1.92 µM |  |  | 
Cc1ccc(-n2cc(-c3nc4ccccc4c(=O)[nH]3)nn2)c([N+](=O)[O-])c1 | Non-Toxic | > 71.8 µM | 2.35 µM |  |  | 
O=c1[nH]c(-c2cn(-c3ccccc3)nn2)nc2ccccc12 | Non-Toxic | > 86.4 µM | 2.56 µM |  |  | 
O=c1[nH]c(-c2cn(-c3ccc([N+](=O)[O-])cc3)nn2)nc2ccccc12 | Non-Toxic | 74.8 µM (≈ 25 µg/mL) | 1.97 µM |  |  | 
COc1ccc(-n2cc(-c3nc4ccccc4c(=O)[nH]3)nn2)cc1 |  | 19.6 µM (≈ 6.25 µg/mL) | 2.63 µM | 24.3% |  | 
O=c1[nH]c(-c2cn(-c3ccc(Br)cc3)nn2)nc2ccccc12 |  | 33.2 µM (≈ 12.2 µg/mL) | 1.96 µM |  | 29.8% | 
O=c1[nH]c(-c2cn(-c3ccccc3F)nn2)nc2ccccc12 |  | 40.7 µM (≈ 12.5 µg/mL) | 2.21 µM |  |  | 27.2%
O=c1[nH]c(-c2cn(-c3cccc(Cl)c3)nn2)nc2ccccc12 | Non-Toxic | > 77.2 µM | 2.78 µM |  |  | 
CC[C@@H](CO)NCCN[C@@H](CC)CO [ETHAMBUTOL] |  | 7.64 µM (≈ 1.56 µg/mL) |  |  |  | 
C=C[C@H]1CN2CC[C@H]1C[C@H]2[C@H](O)c1ccnc2ccc(OC)cc12 [QUININE] |  |  | 0.826 µM |  |  | 
CO[C@H]1/C=C/O[C@@]2(C)Oc3c(C)c(O)c4c(O)c(c(/C=N/N5CCN(C)CC5)c(O)c4c3C2=O)NC(=O)/C(C)=C\C=C\[C@H](C)[C@H](O)[C@@H](C)[C@@H](O)[C@@H](C)[C@H](OC(C)=O)[C@@H]1C [RIFAMPIN] |  | 0.13 µM (≈ 0.107 µg/mL) |  |  |  | 
